Experimental data taken from patent US7097992B2, “Uses of human UDP-glucuronosyltransferase 2B7 to detect and treat cancer” (priority 2001, dated 2006).

Key:
[1] = biological target: T1, recombinant UDP-glucuronosyltransferase 2B7 (Homo sapiens, UniProt P16662); assay: In vitro glucuronidation of lysophosphatidic acids by recombinant UGT2B7 expressed in HK293 cells; assay type: in vitro ADME; settings: for Glucuronidation by UGT2B7 (in words): recombinant UGT2B7, FIG. 9A
T1 construct: made in house
T1 sequence (P16662 24-529): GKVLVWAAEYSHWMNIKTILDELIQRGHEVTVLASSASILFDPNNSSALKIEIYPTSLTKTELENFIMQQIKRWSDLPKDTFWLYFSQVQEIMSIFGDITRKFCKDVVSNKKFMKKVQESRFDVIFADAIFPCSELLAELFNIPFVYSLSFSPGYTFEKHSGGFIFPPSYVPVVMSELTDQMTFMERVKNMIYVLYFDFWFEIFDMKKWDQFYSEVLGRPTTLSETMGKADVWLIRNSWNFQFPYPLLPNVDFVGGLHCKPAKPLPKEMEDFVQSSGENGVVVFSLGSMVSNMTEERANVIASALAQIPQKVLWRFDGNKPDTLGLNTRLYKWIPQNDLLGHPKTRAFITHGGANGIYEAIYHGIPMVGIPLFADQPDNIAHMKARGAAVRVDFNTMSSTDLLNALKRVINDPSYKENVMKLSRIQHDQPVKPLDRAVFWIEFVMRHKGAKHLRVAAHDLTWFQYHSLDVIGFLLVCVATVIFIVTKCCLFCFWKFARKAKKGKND
Text: (§1) Reactions with substrates were run in duplicates.
(§2) Lysophosphatidic acid (LPA) stimulates lysophosphatidic acid receptors which in turn activate PKC and Ras-MAPK signalling pathways. Lysophosphatidic acid is a lipid second messenger involved in progression of malignant ovarian cancer. Cellular effects of lysophosphatidic acid accumulation include stimulation of cell proliferation, inhibition of apoptosis and increased invasiveness of cancer cells. It was hypothesized that anti-proliferative activity of UDP-glucuronosyltransferase 2B7 in the ovarian cancer cell model described above may be associated with inactivation of lysophosphatidic acid through glucuronidation. Thus, in vitro glucuronidation experiments on three different lysophosphatidic acid compounds (FIG. 10) was conducted using human liver microsomes and a recombinant UDP-glucuronosyltransferase 2B7 expressed in HK293 cells.

human liver microsomes = assay: In vitro glucuronidation of lysophosphatidic acids by human liver microsomes; assay type: in vitro ADME; settings: for Glucuronidation by human liver microsomes (in words): FIG. 9A
Text: as §1, §2

SMILES	Glucuronidation by UGT2B7 (in words) [1]	Specific activity of glucuronidation ([1]; recombinant UGT2B7 expressed in HK293 cells)	Specific activity of glucuronidation (human liver microsomes)	Glucuronidation by human liver microsomes (in words) (human liver microsomes)
CCCCCCCC/C=C\CCCCCCCC(=O)OCC(O)COP(=O)(O)O (centres unmarked) [oleoyl-lysophosphatidic acid]	actively glucuronidated	250 pmol/min/mg	560 pmol/min/mg	same activity profile
CCCCCCCCCCCCCCCC(=O)OC[C@@H](O)COP(=O)(O)O [palmitoyl-lysophosphatidic acid]	not	–	–	same activity profile
CCCCCCCCCCCCCCCCCC(=O)OC[C@@H](O)COP(=O)(O)O [stearoyl-lysophosphatidic acid]	not	–	–	same activity profile
